Molecular target: T1, human CRHR2-alpha (Homo sapiens, UniProt Q13324)
T1 sequence (Q13324 1-411): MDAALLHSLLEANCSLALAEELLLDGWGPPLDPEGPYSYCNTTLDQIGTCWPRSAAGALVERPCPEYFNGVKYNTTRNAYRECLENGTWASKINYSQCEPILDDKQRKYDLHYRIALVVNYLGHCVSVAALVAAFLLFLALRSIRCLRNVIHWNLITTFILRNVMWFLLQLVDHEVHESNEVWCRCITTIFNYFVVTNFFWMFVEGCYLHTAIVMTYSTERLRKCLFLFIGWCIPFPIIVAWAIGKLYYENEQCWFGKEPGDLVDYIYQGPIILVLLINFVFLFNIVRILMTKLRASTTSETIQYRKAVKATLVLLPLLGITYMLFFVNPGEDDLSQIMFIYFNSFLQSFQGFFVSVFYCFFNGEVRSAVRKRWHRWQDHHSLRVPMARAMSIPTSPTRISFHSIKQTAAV
Assay: cAMP functional assay for human CRHR2 (LANCE Ultra cAMP, TR-FRET)
Format: cell-based
Settings: CHO-K1 cells expressing human CRHR2-alpha, agonist human urocortin2 at EC80, cAMP; read-out: IC50 against CRHR2
How it was run: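 Inhibition of agonist-driven cAMP was assessed in recombinant CHO-K1 cells at 25° C, using 30 min compound pretreatment and 30 min stimulation with EC80 human urocortin2 (CRHR2) or CRF (CRHR1). IC50 came from dose-response fitting.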

| Structure (SMILES) | IC50 [nM] |
| --- | --- |
| Cc1ccc(-n2c(=O)n(C[C@H]3CC[C@H](NC(=O)c4cc(Cl)cnc4C(F)F)CC3)c3cccnc32)c(Cl)c1 [Example 452, 5-chloro-N-((1r,4r)-4-((3-(2-chloro-4-methylphenyl)-2-oxo-2,3-dihydro-1H-imidazo[4,5-b]pyridin-1-yl)methyl)cyclo-hexyl)-2-(difluoromethyl) nicotinamide] | < 300 |
| Cc1ncc(Cl)cc1C(=O)N[C@H]1CC[C@H](Cn2c(=O)n(-c3ccc4c(c3)cc(CO)n4C)c3ccccc32)CC1 [Example 497, 5-chloro-N-((1r,4r)-4-((3-(2-(hydroxymethyl)-1-methyl-1H-indol-5-yl)-2-oxo-2,3-dihydro-1H-benzo[d]imidazol-1-yl)methyl)cyclohexyl)-2-methylnicotinamide] | < 300 |
| O=C(N[C@H]1CC[C@H](Cn2c(=O)n(-c3ccc(Cl)cc3Cl)c3ncccc32)CC1)c1cc(Cl)cnc1C(F)F [Example 459, 5-chloro-N-((1r,4r)-4-((3-(2,4-dichlorophenyl)-2-oxo-2,3-dihydro-1H-imidazo[4,5-b]pyridin-1-yl)methyl)cyclo-hexyl)-2-(difluoromethyl) nicotinamide] | < 300 |
| COc1ccc(-n2c(=O)n(C[C@H]3CC[C@H](NC(=O)c4cc(Cl)cnc4C)CC3)c3ccccc32)cc1OC [Example 44, 5-chloro-N-((1r,4r)-4-((3-(3,4-dimethoxyphenyl)-2-oxo-2,3-dihydro-1H-benzo[d]imidazol-1-yl)methyl)cyclohexyl)-2-methylnicotinamide] | < 300 |
| O=C(N[C@H]1CC[C@H](Cn2c(=O)n(Cc3ccccn3)c3ccccc32)CC1)c1cc(Cl)ccc1C(F)(F)F [Example 283, 5-chloro-N-((1r,4r)-4-((2-oxo-3-(pyridin-2-ylmethyl)-2,3-dihydro-1H-benzo[d]imidazol-1-yl)methyl)cyclohexyl)-2-(trifluoromethyl)benzamide] | < 300 |
| CNC(=O)c1ccc(-n2c(=O)n(C[C@H]3CC[C@H](NC(=O)c4cc(Cl)cnc4C(F)F)CC3)c3c(F)cccc32)cn1 [Example 548, 5-(3-(((1r,4r)-4-(5-chloro-2-(difluoromethyl)nicotina-mido)cyclohexyl)methyt)-4-fluoro-2-oxo-2,3-dihydro-1H-benzo[d]imidazol-1-yl)-N-methylpicolinamide] | < 300 |
| COc1ccc(C(=O)Cn2c(=O)n(C[C@H]3CC[C@H](NC(=O)c4cc(Cl)cnc4C)CC3)c3ccccc32)cc1 [Example 9, 5-chloro-N-((1r,4r)-4-((3-(2-(4-methoxyphenyl)-2-oxoethyl)-2-oxo-2,3-dihydro-1H-benzo[d]imidazol-1-yl)methy)cyclohexyl)-2-methylnicotinamide] | < 300 |
| CCn1nc2ccccc2c1C(=O)N[C@H]1CC[C@H](Cn2c(=O)n(-c3ccc(C(=O)NC)nc3)c3ccccc32)CC1 [Example 166, 2-ethyl-N-((1r,4r)-4-((3-(6-(methylcarbamoyl)pyridin-3-yl)-2-oxo-2,3-dihydro-1H-benzo [d]imidazol-1-yl)methyl)cyclo-hexyl)-2H-indazole-3-carboxamide] | < 300 |
| Cc1ncc(Cl)cc1C(=O)N[C@H]1CC[C@H](Cn2c(=O)n(-c3ccc4[nH]nc(Cl)c4c3)c3ccccc32)CC1 [Example 222, 5-chloro-N-((1r,4r)-4-((3-(3-chloro-1H-indazol-5-yl)-2-oxo-2,3-dihydro-1H-benzo[d]imidazol-1-yl)methyl)cyclohexyl)-2-methylnicotinamide] | < 300 |
| Cn1cc(-c2cccc(-n3c(=O)n(C[C@H]4CC[C@H](NC(=O)c5cc(Cl)cnc5C(F)F)CC4)c4ccccc43)c2)cn1 [Example 681, 5-chloro-2-(difluoromethyl)-N-((1r,4r)-4-((3-(3-(1-methyl-1H-pyrazol-4-yl)phenyl)-2-oxo-2,3-dihydro-1H-benzo [d]imidazol-1-yl)methyl)cyclo-hexyl)nicotinamide] | < 300 |
| Cc1ncc(Cl)cc1C(=O)N[C@H]1CC[C@H](Cn2c(=O)n(Cc3ccccc3)c3ncccc32)CC1 [Example 448, N-((1r,4r)-4-((3-benzyl-2-oxo-2,3-dihydro-1H-imidazo [4,5-b]pyridin-1-yl)methyl)cyclohexyl)-5-chloro-2-methylnicotinamide] | < 300 |
| Cc1cc(-n2c(=O)n(C[C@H]3CC[C@H](NC(=O)c4cc(Cl)cnc4C)CC3)c3ccccc32)c(C)cn1 [Example 336, 5-chloro-N-((1r,4r)-4-((3-(2,5-dimethylpyridin-4-yl)-2-oxo-2,3-dihydro-1H-benzo[d]imidazol-1-yl)methyl)cyclohexyl)-2-methylnicotinamide] | < 300 |

Continued, values first:

| IC50 [nM] | Structure (SMILES) |
| --- | --- |
| < 300 | CNC(=O)c1ccc(-n2c(=O)n(C[C@H]3CC[C@H](NC(=O)c4cc(Cl)cnc4C(F)(F)F)CC3)c3cc(F)ccc32)cn1 [Example 290, 5-(3-(((1r,4r)-4-(5-chloro-2-(trifluoromethyl)nico-tinamido)cyclohexyl)methyl)-5-fluoro-2-oxo-2,3-dihydro-1H-benzo[d]imidazol-1-yl)-N-methyl-picolinamide] |
| < 300 | COC1CN(c2ccc(-n3c(=O)n(C[C@H]4CC[C@H](NC(=O)c5cc(Cl)cnc5C(F)F)CC4)c4ccccc43)cn2)C1 [Example 554, 5-chloro-2-(difluoromethyl)-N-((1r,4r)-4-((3-(6-(3-methoxyazetidin-1-yl)pyridin-3-yl)-2-oxo-2,3-dihydro-1H-benzo[d]imidazol-1-yl)methyl)cyclohexyl)nicotinamide] |
| < 300 | Cc1ncc(Cl)cc1C(=O)N[C@H]1CC[C@H](Cn2c(=O)n(-c3ccc(C4CCC4)nc3)c3ccccc32)CC1 [Example 279, 5-chloro-N-((1r,4r)-4-((3-(6-cyclobutylpyridin-3-yl)-2-oxo-2,3-dihydro-1H-benzo[d]imidazol-1-yl)methyl)cyclohexyl)-2-methylnicotinamide] |
| < 300 | O=C(N[C@H]1CC[C@H](Cn2c(=O)n(-c3ccc(OCCF)nc3)c3ccccc32)CC1)c1cc(Cl)cnc1C(F)F [Example 432, 5-chloro-2-(difluoromethyl)-N-((1r,4r)-4-((3-(6-(2-fluoroethoxy)pyridin-3-yl)-2-oxo-2,3-dihydro-1H-benzo[d]imidazol-1-yl)methyl)cyclohexyl)nicotinamide] |
| < 300 | Cc1ncc(Cl)cc1C(=O)N[C@H]1CC[C@H](Cn2c(=O)n(-c3ccc4cncnc4c3)c3ccccc32)CC1 [Example 443, 5-chloro-2-methyl-N-((1r,4r)-4-((2-oxo-3-(quinazolin-7-yl)-2,3-dihydro-1H-benzo[d]imidazol-1-yl)methyl)cyclo-hexyl)nicotinamide] |
| < 300 | Cc1ncc(Cl)cc1C(=O)N[C@H]1CC[C@H](Cn2c(=O)n(-c3ccc(-c4ncco4)cc3)c3ccccc32)CC1 [Example 451, 5-chloro-2-methyl-N-((1r,4r)-4-((3-(4-(oxazol-2-yl)phenyl)-2-oxo-2,3-dihydro-1H-benzo [d]imidazol-1-yl)methyl)cyclo-hexyl)nicotinamide] |
| < 300 | CNC(=O)c1ccc(-n2c(=O)n(C[C@H]3CC[C@H](NC(=O)c4cc(Cl)cnc4N)CC3)c3ccccc32)cn1 [Example 534, 5-(3-(((1r,4r)-4-(2-amino-5-chloronicotinamido)cyclo-hexyl)methyl)-2-oxo-2,3-dihydro-1H-benzo[d]imidazol-1-yl)-N-methylpicolinamide] |
| < 300 | Cc1ncc(Cl)cc1C(=O)N[C@H]1CC[C@H](Cn2c(=O)n(-c3ccc(C4CC4)nc3)c3ccccc32)CC1 [Example 86, 5-chloro-N-((1r,4r)-4-((3-(6-cyclopropylpyridin-3-yl)-2-oxo-2,3-dihydro-1H-benzo[d]imidazol-1-yl)methyl)cyclohexyl)-2-methylnicotinamide] |
| < 300 | CNc1cc(-n2c(=O)n(C[C@H]3CC[C@H](NC(=O)c4cc(Cl)cnc4C(F)(F)F)CC3)c3ccccc32)ccn1 [Example 665, 5-chloro-N-((1r,4r)-4-((3-(2-(methylamino)pyridin-4-yl)-2-oxo-2,3-dihydro-1H-benzo[d]imidazol-1-yl)methyl)cyclohexyl)-2-(trifluoromethyl)nicotinamide] |
| < 300 | CN(C)c1ccc(-n2c(=O)n(C[C@H]3CC[C@H](NC(=O)c4cc(Cl)cnc4C(F)F)CC3)c3ccccc32)nc1 [Example 648, 5-chloro-2-(difluoromethyl)-N-((1r,4r)-4-((3-(5-(dimethyl-amino)pyridin-2-yl)-2-oxo-2,3-dihydro-1H-benzo[d]imidazol-1-yl)methyl)cyclo-hexyl)nicotinamide] |
| < 300 | O=C(N[C@H]1CC[C@H](Cn2c(=O)n(-c3ccc(N[C@H]4CCOC4)nc3)c3ccccc32)CC1)c1cc(Cl)cnc1C(F)(F)F [Example 299, 5-chloro-N-((1S,4r)-4-((2-oxo-3-(6-(((S)-tetrahydro-furan-3-yl)amino)pyridin-3-yl)-2,3-dihydro-1H-benzo [d]imidazol-1-yl)methyl)cyclohexyl)-2-(trifluoro-methyl)nicotinamide] |
| < 300 | O=C(N[C@H]1CC[C@H](Cn2c(=O)n(-c3ccc(CO)cc3)c3ccccc32)CC1)c1cc(Cl)cnc1C(F)F [Example 384, 5-chloro-2-(difluoromethyl)-N-((1r,4r)-4-((3-(4-(hydroxy-methyl)phenyl)-2-oxo-2,3-dihydro-1H-benzo[d]imidazol-1-yl)methyl)cyclohexyl) nicotinamide] |

Reference: patent publication US11802120B2, “Fused cyclic urea derivatives as CRHR2 antagonist” (RaQualia Pharma Inc., priority 2018, dated 2023)
